Results published in patent US20040102454A1, “Phenylahistin and the phenylahistin analogs, a new class of anti-tumor compounds” (priority 1998, published 2004).

Tests used:
Assay type in all cases: cell-based
A549 = experiment: HCC panel assay, sulforhodamine B; conditions: A549, Lung, (−)-PLH content 24.1%
Procedure: (§1) The antitumor activity of PLH was evaluated by the Human Cancer Cell Line Panel (HCC panel) assay, see Yamori T., Jap. J Cancer Chemother., (1997), 24, 129-35. This HCC panel consists of 38 tumor cell lines including 7 lung cancer, 6 stomach, 6 colon, 5 ovary, 6 central nerve system, 5 breast, 2 kidney and 1 melanoma cell lines. Each tumor cell was seeded in 96-well tissue culture plates and incubated overnight. Various concentrations (5 doses; final 10^−4, 10^−5, 10^−6, 10^−7 and 10^−8 M) of PLH were added, and the cells were incubated for 48 hours. […] All mice were obtained from Japan SLC (Shizuoka, Japan), P388 leukemia cells were obtained from Dainippon Pharmaceuticals Inc. (Osaka, Japan), Lewis Lung Carcinoma from Riken Cell Bank (Tsukuba, Japan), and Colon 26 cells from the National Cancer Center, Japan (Tokyo, Japan).

BSY-1 = experiment: HCC panel assay, sulforhodamine B; conditions: BSY-1, Breast, (−)-PLH content 24.1%
Procedure: as §1

DMS273 = experiment: HCC panel assay, sulforhodamine B; conditions: DMS273, Lung, (−)-PLH content 24.1%
Procedure: as §1

HCC2998 = experiment: HCC panel assay, sulforhodamine B; conditions: HCC2998, Colon, (−)-PLH content 24.1%
Procedure: as §1

KM-12 = experiment: HCC panel assay, sulforhodamine B; conditions: KM-12, Colon, (−)-PLH content 24.1%
Procedure: as §1

MKN28 = experiment: HCC panel assay, sulforhodamine B; conditions: MKN28, Stomach, (−)-PLH content 24.1%
Procedure: as §1

MKN45 = experiment: HCC panel assay, sulforhodamine B; conditions: MKN45, Stomach, (−)-PLH content 24.1%
Procedure: as §1

NCI-H226 = experiment: HCC panel assay, sulforhodamine B; conditions: NCI-H226, Lung, (−)-PLH content 24.1%
Procedure: as §1

NCI-H23 = experiment: HCC panel assay, sulforhodamine B; conditions: NCI-H23, Lung, (−)-PLH content 24.1%
Procedure: as §1

NCI-H460 = experiment: HCC panel assay, sulforhodamine B; conditions: NCI-H460, Lung, (−)-PLH content 24.1%
Procedure: as §1

NCI-H522 = experiment: HCC panel assay, sulforhodamine B; conditions: NCI-H522, Lung, (−)-PLH content 24.1%
Procedure: as §1

OVCAR-3 = experiment: HCC panel assay, sulforhodamine B
Procedure: as §1

OVCAR-4 = experiment: HCC panel assay, sulforhodamine B; conditions: OVCAR-4, Ovary, (−)-PLH content 24.1%
Procedure: as §1

OVCAR-8 = experiment: HCC panel assay, sulforhodamine B; conditions: OVCAR-8, Ovary, (−)-PLH content 24.1%
Procedure: as §1

RXF-6311 = experiment: HCC panel assay, sulforhodamine B; conditions: RXF-6311, Renal, (−)-PLH content 24.1%
Procedure: as §1

SF-268 = experiment: HCC panel assay, sulforhodamine B; conditions: SF-268, CNS, (−)-PLH content 24.1%
Procedure: as §1

SK-OV-3 = experiment: HCC panel assay, sulforhodamine B; conditions: SK-OV-3, Ovary, (−)-PLH content 24.1%
Procedure: as §1

SNB-78 = experiment: HCC panel assay, sulforhodamine B; conditions: SNB-78, CNS, (−)-PLH content 24.1%
Procedure: as §1

[1] = tested on: A549 cells (human lung carcinoma); experiment: A549 proliferation, Alamar Blue assay
Procedure: Exponentially growing A549 cells were seeded into 96-well tissue culture plates (2×10^3 cells/100 μl/well) and cultured for 16 hours. (−)-PLH or CLC was then added to each well at various concentrations, and the cells were cultured for an additional 48 hours. Live cells were counted using Alamar Blue™ from BioSource International (Camarillo, Calif.) as described in Ahmed, S. A., J. Immunol. Methods, (1994), 170, 211-24.

[2] = Homo sapiens, read-out: GL50 (the source's name)
[3] = Homo sapiens, read-out: LC50 (the source's name)

C=CC(C)(C)c1[nH]cnc1/C=C1\NC(=O)[C@H](Cc2ccccc2)NC1=O (racemic) [PLH, phenylahistin]
TGI (A549): >100000 nM
IC50 (A549; [2]): 970 nM
CC50 (A549; [3]): > 100000 nM
TGI (BSY-1): 670 nM
IC50 (BSY-1; [2]): 230 nM
CC50 (BSY-1; [3]): > 100000 nM
TGI (DMS273): >100000 nM
IC50 (DMS273; Homo sapiens, DMS-273, read-out: GL50 (the source's name)): 290 nM
CC50 (DMS273; Homo sapiens, DMS-273, read-out: LC50 (the source's name)): > 100000 nM
TGI (HCC2998): 5300 nM
IC50 (HCC2998; Homo sapiens, HCC 2998, read-out: GL50 (the source's name)): 1100 nM
CC50 (HCC2998; Homo sapiens, HCC 2998, read-out: LC50 (the source's name)): > 100000 nM
IC50 (KM-12; Homo sapiens, KM12, read-out: GL50 (the source's name)): 380 nM
CC50 (KM-12; Homo sapiens, KM12, read-out: LC50 (the source's name)): > 100000 nM
TGI (KM-12): >100000 nM
IC50 (MKN28; Homo sapiens, MKN-28, read-out: GL50 (the source's name)): 420 nM
CC50 (MKN28; Homo sapiens, MKN-28, read-out: LC50 (the source's name)): > 100000 nM
TGI (MKN28): >100000 nM
IC50 (MKN45; Homo sapiens, MKN-45, read-out: GL50 (the source's name)): 1500 nM
CC50 (MKN45; Homo sapiens, MKN-45, read-out: LC50 (the source's name)): > 100000 nM
TGI (MKN45): >100000 nM
IC50 (NCI-H226; [2]): 410 nM
CC50 (NCI-H226; [3]): > 100000 nM
TGI (NCI-H226): 31000 nM
IC50 (NCI-H23; [2]): 910 nM
CC50 (NCI-H23; [3]): > 100000 nM
TGI (NCI-H23): 92000 nM
IC50 (NCI-H460; [2]): 410 nM
CC50 (NCI-H460; [3]): > 100000 nM
TGI (NCI-H460): >100000 nM
IC50 (NCI-H522; [2]): 250 nM
CC50 (NCI-H522; [3]): > 100000 nM
TGI (NCI-H522): 810 nM
CC50 (OVCAR-3; Homo sapiens, OVCAR-3, read-out: LC50): > 100000 nM
IC50 (OVCAR-3; Homo sapiens, OVCAR-3, Ovary, (−)-PLH content 24.1%, read-out: GL50 (the source's name)): 3000 nM
TGI (OVCAR-3; OVCAR-3, Ovary, (−)-PLH content 24.1%): >100000 nM
IC50 (OVCAR-4; [2]): 40000 nM
CC50 (OVCAR-4; [3]): > 100000 nM
TGI (OVCAR-4): >100000 nM
IC50 (OVCAR-8; [2]): 520 nM
CC50 (OVCAR-8; [3]): > 100000 nM
TGI (OVCAR-8): 56000 nM
IC50 (RXF-6311; [2]): 1900 nM
CC50 (RXF-6311; [3]): > 100000 nM
TGI (RXF-6311): >100000 nM
IC50 (SF-268; [2]): 410 nM
CC50 (SF-268; [3]): > 100000 nM
TGI (SF-268): >100000 nM
IC50 (SK-OV-3; [2]): 370 nM
CC50 (SK-OV-3; [3]): > 100000 nM
TGI (SK-OV-3): >100000 nM
IC50 (SNB-78; [2]): 1300 nM
CC50 (SNB-78; [3]): > 100000 nM
TGI (SNB-78): >100000 nM

C=CC(C)(C)c1[nH]cnc1/C=C1\NC(=O)[C@H](Cc2ccccc2)NC1=O [(−)-phenylahistin]
IC50 ([1]; Homo sapiens, A549, read-out: 50% inhibitory concentration (IC50), proliferation of A549 cells, 48 hours): 300 nM
fold less potent than CLC, A549 proliferation ([1]; versus CLC under the assay conditions): 5 fold
